# Assay results as given in patent US20050074744A1, “Assays for evaluating anti-osteoarthritic activity” (priority 2003, published 2005).
# What was measured:
# aggrecanase 1 RNA = experiment: Quantitative real-time RT-PCR of aggrecanase 1 RNA in IL-1β-treated ACGs; assay type: cell-based, human; conditions: ACG, 24 hours
# Procedure: (§1) ACGs were constructed from the human chondrocyte strain Cc 05912 1°, which was isolated and propagated in Dubelcco's-Modified Eagle's Medium with. 10% fetal bovine serum (DMEM/10% FBS). After propagation, the cells were used to assemble ACGs on type II collagen coated Millipore Millicell-CM filters at a density of 2 million cells/cm^2, using the procedure described in U.S. Pat. No. 5,326,357. The ACGs were grown in defined ACG media (DMEM/2×ITS×(Invitrogen # 51500-056), 2% Human Serum Albumin) supplemented with 5 ng/ml TGF-β2 and 100 μg/ml ascorbic acid. After three weeks in culture, the levels of aggrecan and collagen type II expression in the ACGs peaked and leveled off. […]
# (§2) After incubation with IL-1β for 24 hours, a group of the ACGs from Example 2 were harvested for quantitative real-time RT-PCR by snap freezing them in LN2. For quantitative real-time RT-PCR total RNA was isolated from the ACGs with TRIzol™ Reagent (Invitrogen # 15596-026) with subsequent cleanup using the Qiagen Rneasy™ Mini Kit (Qiagen # 74104). Contaminating DNA was removed from total RNA samples using the Ambion DNA-free kit (Ambion # 1906). cDNA synthesis was performed on 1 […] of each sample using the Amersham Ready-To-Go You-Prime First-Strand Beads™ (Amersham # 27-9264-01) primed with oligo dT. Reverse transcriptase activity was measured using the PicoGreen™ dsDNA quantitation Kit (Molecular Probes # P-7589). […]
# collagenase 3 RNA = experiment: Quantitative real-time RT-PCR of collagenase 3 RNA in IL-1β-treated ACGs; assay type: cell-based, human; conditions: ACG, 24 hours
# Procedure: as §1, §2
# aggrecanase 2 RNA = experiment: Quantitative real-time RT-PCR of aggrecanase 2 RNA in IL-1β-treated ACGs; assay type: cell-based, human; conditions: ACG, 24 hours
# Procedure: as §1, §2
# collagenase 1 RNA = experiment: Quantitative real-time RT-PCR of collagenase 1 RNA in IL-1β-treated ACGs; assay type: cell-based, human; conditions: ACG, 24 hours
# Procedure: as §1, §2
# stromelysin RNA = experiment: Quantitative real-time RT-PCR of stromelysin RNA in IL-1β-treated ACGs; assay type: cell-based, human; conditions: ACG, 24 hours
# Procedure: as §1, §2
# [1] = system: articular cartilage grafts (ACGs); experiment: Histological assessment (toluidine blue) of proteoglycan and collagen levels in ACGs; assay type: cell-based, human; conditions: ACG; for presence or loss of proteoglycans, toluidine blue stain: 24 hours
# Procedure: ACGs were constructed from the human chondrocyte strain Cc 05912 1°, which was isolated and propagated in Dubelcco's-Modified Eagle's Medium with. 10% fetal bovine serum (DMEM/10% FBS). After propagation, the cells were used to assemble ACGs on type II collagen coated Millipore Millicell-CM filters at a density of 2 million cells/cm^2, using the procedure described in U.S. Pat. No. 5,326,357. The ACGs were grown in defined ACG media (DMEM/2×ITS×(Invitrogen # 51500-056), 2% Human Serum Albumin) supplemented with 5 ng/ml TGF-β2 and 100 μg/ml ascorbic acid. After three weeks in culture, the levels of aggrecan and collagen type II expression in the ACGs peaked and leveled off.
# After three weeks, the IL-1β (R&D Systems # 201-LB) and DBH incubations began. All of the preincubations and subsequent incubations were performed in DMEM. First all of the ACGs were washed twice with DMEM. Sample 1 ACGs were harvested for histology and gene expression analysis at the onset of the experiment. Next, 2 hour preincubations were performed on four groups, in triplicate for both histology and gene expression analysis. Sample 2 ACGs received 250 μl of DMEM to the inside and outside of the ACG. Sample 3 ACGs received the same. Sample 4 ACGs received 5 μm DBH in the same volumes as the other groups to the inside and outside of the Millicell filter containing the ACGs. Sample 5 ACGs received DMSO in the same volume as the DBH group as a vehicle control. The ACGs were then incubated for 2 hours. After the 2 hour preincubation with DBH, IL-1β incubation was added. Sample 2 received another 250 μl of DMEM in addition to the 250 μl that was added at the preincubation step. Sample 3 received 250 μl, inside and out, of DMEM with IL-1β at a final concentration of 2 ng/ml. Sample 4 also received IL-1β with the addition of more DBH to compensate for the volume change of DMEM to keep the concentration of 5 μm. Sample 5 also received IL-1β with an adjustment of the DMSO levels to compensate for the volume change of the DMEM.
# After incubation with-lL-1β for 24 hours, a group of the ACGs from Example 2 were fixed in 10% neutral buffered formalin and embedded in paraffin. Sections were cut and stained with toluidine blue to assess the presence or loss of proteoglycans in the ACGs.
# [2] = system: Hartley guinea pig model of osteoarthritis; conditions: U.S. Pat. No. 5,591,740; cited from earlier work
# [3] = system: chondrocyte monolayer cultures; conditions: U.S. Pat. No. 5,591,740; cited from earlier work
# [4] = 5 μm DBH (2 hour preincubation) + IL-1β 2 ng/ml
Compound,"Fold Induction by IL-1β, aggrecanase 1 (aggrecanase 1 RNA; IL-1β 2 ng/ml, RNA by Q RT-PCR)","Fold Induction by IL-1β, collagenase 3 (collagenase 3 RNA; IL-1β 2 ng/ml, RNA by Q RT-PCR)","Fold Induction by IL-1β, aggrecanase 2 (aggrecanase 2 RNA; IL-1β 2 ng/ml, RNA by Q RT-PCR)","Fold Induction by IL-1β, collagenase 1 (collagenase 1 RNA; IL-1β 2 ng/ml, RNA by Q RT-PCR)","Fold Induction by IL-1β, stromelysin (stromelysin RNA; IL-1β 2 ng/ml, RNA by Q RT-PCR)","presence or loss of proteoglycans, toluidine blue stain ([1]; IL-1β 2 ng/ml alone)","loss of proteoglycans and collagen, histological staining ([1]; IL-1β alone)","% reduction of IL-1β-induced gene expression with DBH, aggrecanase 1 (aggrecanase 1 RNA; [4])","% reduction of IL-1β-induced gene expression with DBH, collagenase 3 (collagenase 3 RNA; [4])","% reduction of IL-1β-induced gene expression with DBH, aggrecanase 2 (aggrecanase 2 RNA; [4])","% reduction of IL-1β-induced gene expression with DBH, collagenase 1 (collagenase 1 RNA; [4])",preexisting cartilage damage [2],"% reduction of IL-1β-induced gene expression with DBH, stromelysin (stromelysin RNA; [4])",IL-1 induced degradation of matrix proteins [3],"presence or loss of proteoglycans, toluidine blue stain ([1]; IL-1β 2 ng/ml and 5 μm DBH)","loss of proteoglycans and collagen, histological staining ([1]; IL-1β and DBH)"
IL-1β: inflammatory cytokine (R&D Systems # 201-LB) used to induce osteoarthritic cartilage damage in ACGs,4,17,4,183,168,marked loss of proteoglycans,causes the loss of proteoglycans and collagen,,,,,,,,,
"NC1=N/C(=C2/CCNC(=O)c3[nH]ccc32)C(=O)N1 [DBH, debromohymenialdesine]",,,,,,,,65%,55%,56%,66%,reduces preexisting cartilage damage,57%,inhibits IL-1 induced degradation of matrix proteins,decreased loss of proteoglycans,reduces the loss of proteoglycans and collagen
